According to patent US7053219B2, “Isoxazolopyridone derivatives and their use” (Banyu Pharmaceutical Co. Ltd., priority 2001, dated 2006):

Biological target: T1, rat metabotropic glutamic acid receptor 7a (Rattus norvegicus, UniProt P35400)
T1 construct: expressed in transfected cells
Experiment: Metabotropic glutamic acid receptor-antagonistic effect (Test Method 1, [Ca2+]i by FLIPR)
Assay type: cell-based
Conditions: CHO cells stably expressing rat metabotropic glutamic acid receptor 7a and Gα15, agonist 0.5 mM L-AP4, test compound given 5 minutes before agonist, [Ca2+]i with Fluo-3AM
From the text: (Test Method 1) Metabotropic Glutamic Acid Receptor-Antagonistic Effect:
Using LIPOFECTAMINE (by Gibco BRL), CHO cells were transfected with a CDNA of rat metabotropic glutamic acid receptor 7a, which is described in J. Biol. Chem., N. Okamoto et al., Vol. 269, pp. 1231–1236, 1994, to give a cell strain capable of stably expressing rat metabotropic glutamic acid receptor 7a. The metabotropic glutamic acid receptor 7a-transfected CHO cells were further transfected with a Gα15 cDNA, which is describedin J. Biol. Chem., S. Offermanns, M. I. Simon, Vol. 270, pp. 15175–15180, 1995, to give a cell strain capable of stably expressing rat metabotropic glutamic acid receptor 7a and Gα15. The CHO cells capable of stably expressing metabotropic glutamic acid receptor 7a and Gα15 were incubated along with Fluo-3AM (final concentration 4 μM) at 37° C. for 1 hour, and then washed 4 times with an assay buffer (1×Hanks' salt with 2.5 mM probenecid and 20 mM HEPES (N-2-hydroxyethylpiperazine-N′-2-ethanesulfonic acid), and the resulting cells were assayed for [Ca^2+]i. For the determination of [Ca^2+]i, used was a fluorimetric imaging plate reader (FLIPR by Molecular Device). Concretely, using an agonist, 0.5 mM L-AP4, the capacity of the antagonistic substance was measured.
The Hanks' salt was prepared by 10-fold diluting a Hanks' balanced solution (Gibuco BRL 14065-056 10×). […]

T1 sequence (P35400 35-915): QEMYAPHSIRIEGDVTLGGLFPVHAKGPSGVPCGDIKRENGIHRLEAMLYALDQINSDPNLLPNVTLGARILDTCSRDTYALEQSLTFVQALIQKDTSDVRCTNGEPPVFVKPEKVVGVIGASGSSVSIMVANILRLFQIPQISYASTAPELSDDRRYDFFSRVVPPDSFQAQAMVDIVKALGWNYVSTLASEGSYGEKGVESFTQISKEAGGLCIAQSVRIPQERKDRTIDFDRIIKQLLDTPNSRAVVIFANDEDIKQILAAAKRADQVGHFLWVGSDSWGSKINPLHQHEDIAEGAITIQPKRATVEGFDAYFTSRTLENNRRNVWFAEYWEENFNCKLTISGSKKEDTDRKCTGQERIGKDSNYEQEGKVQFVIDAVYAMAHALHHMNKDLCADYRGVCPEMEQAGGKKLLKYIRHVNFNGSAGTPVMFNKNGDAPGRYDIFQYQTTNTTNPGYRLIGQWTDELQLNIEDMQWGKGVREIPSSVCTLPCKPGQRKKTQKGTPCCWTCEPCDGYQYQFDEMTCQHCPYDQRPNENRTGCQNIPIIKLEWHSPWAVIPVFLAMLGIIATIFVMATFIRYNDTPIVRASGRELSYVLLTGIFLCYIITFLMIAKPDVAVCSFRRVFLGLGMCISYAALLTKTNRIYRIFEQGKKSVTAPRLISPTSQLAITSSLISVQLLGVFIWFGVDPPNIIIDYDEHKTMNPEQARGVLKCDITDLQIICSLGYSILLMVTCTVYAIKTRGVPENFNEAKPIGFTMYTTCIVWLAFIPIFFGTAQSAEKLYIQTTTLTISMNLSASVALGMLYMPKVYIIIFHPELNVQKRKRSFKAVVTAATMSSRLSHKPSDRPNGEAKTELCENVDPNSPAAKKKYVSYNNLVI

| IC50 [nM] | Compound |
| --- | --- |
| 7.65 | COc1ccccc1-c1noc2cc(-c3ccccc3)n(C)c(=O)c12 [Production Example 8, 5-methyl-3-(2-methoxyphenyl)-6-phenylisoxazolo[4,5c]pyridin-4(5H)-one] |
| 10.4 | Cn1c(-c2cccnc2)cc2onc(-c3ccncc3)c2c1=O [Production Example 32, 5-methyl-6-pyridin-3-yl-3-pyridin-4-yl-isoxazolo[4,5-c]-pyridin-4(5H)-one] |
